Source: patent US20230263822A1, “MODULATION OF FACTOR 11 EXPRESSION” (Ionis Pharmaceuticals, Inc., priority 2008, published 2023)
Read-outs that look alike come from different tables or passages of the source. Strand notation (5' to 3'): a small letter for the sugar, then the base; units joined by * are phosphorothioate-linked, units joined directly phosphodiester-linked; [ ] holds rarer units or linkages, { } end groups; capitals alone tell only the bases. e = 2'-O-(2-methoxyethyl) (MOE); [5mC] = 5-methylcytosine; d = 2'-deoxy (DNA)

What was measured:
human Factor 11 mRNA [1] = assay: Antisense inhibition of human Factor 11 in HepG2 cells, electroporation, 8,000 nM (Example 30); type: cell-based; details: electroporation, 8,000 nM antisense oligonucleotide
Method in brief: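 HepG2 cells electroporated with 8,000 nM 5-10-5, 5-8-5 or 6-8-6 MOE gapmers (phosphorothioate, 5-methylcytidine), ~24 h. Factor 11 mRNA quantified by qRT-PCR, normalised to RIBOGREEN total RNA. Reported as percent inhibition versus untreated cells.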

human Factor 11 mRNA [2] = assay: Dose-dependent inhibition of human Factor 11 in HepG2 cells, electroporation 123.46-10,000 nM (Example 31); type: cell-based
Procedure: Cells were plated at a density of 20,000 cells per well and transfected using electroporation with 123.46 nM, 370.37 nM, 1,111.11 nM, 3,333.33 nM and 10,000 nM concentrations of antisense oligonucleotide, as specified in Table 45. After a treatment period of approximately 16 hours, RNA was isolated from the cells and Factor 11 mRNA levels were measured by quantitative real-time PCR. Human Factor 11 primer probe set RTS 2966 was used to measure mRNA levels. Factor 11 mRNA levels were adjusted according to total RNA content, as measured by RIBOGREEN. Results are presented as percent inhibition of Factor 11, relative to untreated control cells.

[3] = Viscosity of ISIS antisense oligonucleotides, micro-viscometer at 25 °C (Example 47); type: physicochemical
Procedure: The viscosity of antisense oligonucleotides targeting human Factor 11 was measured with the aim of screening out antisense oligonucleotides which have a viscosity more than 40 cP at a concentration of 165-185 mg/mL.
ISIS oligonucleotides (32-35 mg) were weighed into a glass vial, 120 μL of water was added and the antisense oligonucleotide was dissolved into solution by heating the vial at 50° C. Part of (75 μL) the pre-heated sample was pipetted to a micro-viscometer (Cambridge). The temperature of the micro-viscometter was set to 25° C. and the viscosity of the sample was measured. Another part (20 μL) of the pre-heated sample was pipetted into 10 mL of water for UV reading at 260 nM at 85° C. (Cary UV instrument).

[4] = mouse, in vivo, sc, 50 mg/kg
[5] = rat, in vivo, sc, 50 mg/kg
[6] = rat, in vivo, sc, 50 mg/kg; remark: listed apart in the source
[7] = mouse, in vivo, sc, 50 mg/kg; remark: listed apart in the source
[8] = mouse, in vivo, sc, 50 mg/kg; remark: listed apart in the source
[9] = rat, in vivo, sc, 50 mg/kg; remark: listed apart in the source
[10] = mouse, in vivo, sc, 50 mg/kg; remark: listed apart in the source

For “445505 (antisense e[5mC]*eG*eG*e[5mC]*eA*eT*dT*dG*dG*dT*dG*d[5mC]*dA*d[5mC]*eA*eG*eT*eT*eT*e[5mC]) [compound 445505]”, the “Percent inhibition of human Factor 11 mRNA levels” value (human Factor 11 mRNA [1]) was 89%, the “Percent inhibition of Factor 11 mRNA at 123.47 nM” value (human Factor 11 mRNA [2]; electroporation, 123.47 nM, approx. 16 hours, relative to untreated control cells) was 12% and the “Percent inhibition of Factor 11 mRNA at 370.37 nM” value (human Factor 11 mRNA [2]; electroporation, 370.37 nM, approx. 16 hours, relative to untreated control cells) was 30%. The “Percent inhibition of Factor 11 mRNA at 1,111.11 nM” value (human Factor 11 mRNA [2]; electroporation, 1,111.11 nM, approx. 16 hours, relative to untreated control cells) was 39%, the “Percent inhibition of Factor 11 mRNA at 3,333.33 nM” value (human Factor 11 mRNA [2]; electroporation, 3,333.33 nM, approx. 16 hours, relative to untreated control cells) was 59% and the “Percent inhibition of Factor 11 mRNA at 10,000.0 nM” value (human Factor 11 mRNA [2]; electroporation, 10,000.0 nM, approx. 16 hours, relative to untreated control cells) was 77%. It also gave an IC50 (human Factor 11 mRNA [2]; electroporation, Factor 11 mRNA expression) of 1.8 µM, a Concentration ([3]; concentration of the viscosity sample, UV reading at 260 nM at 85° C.) of 155 mg/mL and a Viscosity ([3]; in water, micro-viscometer at 25° C., at the concentration of the same line) of 9 cP.
With “ISIS 412223: 5-10-5 MOE gapmer ACAGTTTCTGGCAGGCCTCG (sugars from the 5' end e5 d10 e5, backbone and methylation of C not given here)” the HCT [4] was 48%, the Lymphocyte [4] was 4599 cells/μL and the Neutrophil [4] was 1756 cells/μL. The Platelets [4] was 862 10^3/μL, the RBC [4] was 9 10^6/μL and the WBC [4] was 7 10^3/μL. It also gave a hemoglobin [4] of 15 g/dL, a monocytes [4] of 200 cells/μL and a BUN [5] of 24 mg/dL. For the same substance, the Creatinine [5] was 46 mg/dL, the Total urine protein [5] was 224 mg/dL and the Urine protein/creatinine ratio [5] was 4.6. It also gave an HCT [6] of 41%, a Lymphocyte [6] of 16990 and a Neutrophil [6] of 1826. For the same substance, the Platelets [6] was 567, the RBC [6] was 7.2 10^6/μL and the WBC [6] was 20 10^3/μL. It also gave a hemoglobin [6] of 13.1 g/dL, an ALT [7] of 60 IU/L and an AST [7] of 125 IU/L. The Bilirubin [7] was 0.20 mg/dL, the Cholesterol [7] was 117 mg/dL and the BUN [8] was 28 mg/dL. It also gave an ALT [9] of 85 IU/L, an AST [9] of 180 IU/L and an Albumin [9] of 5. For the same substance, the Bilirubin [9] was 0.14 mg/dL.
“ISIS 412224: 5-10-5 MOE gapmer GCATTGGTGCACAGTTTCTG (sugars from the 5' end e5 d10 e5, backbone and methylation of C not given here)” gave an HCT [4] of 50%, a Lymphocyte [4] of 6284 cells/μL and a Neutrophil [4] of 2107 cells/μL. The Platelets [4] was 647 10^3/μL, the RBC [4] was 10 10^6/μL and the WBC [4] was 9 10^3/μL. The hemoglobin [4] was 15 g/dL, the monocytes [4] was 195 cells/μL and the BUN [5] was 24 mg/dL. For the same substance, the Creatinine [5] was 44 mg/dL, the Total urine protein [5] was 171 mg/dL and the Urine protein/creatinine ratio [5] was 3.8. For the same substance, the HCT [6] was 42%, the Lymphocyte [6] was 16807 and the Neutrophil [6] was 1865. The Platelets [6] was 685, the RBC [6] was 7.4 10^6/μL and the WBC [6] was 20 10^3/μL. It also gave a hemoglobin [6] of 13.4 g/dL, an ALT [7] of 214 IU/L and an AST [7] of 183 IU/L. It also gave a Bilirubin [7] of 0.19 mg/dL, a Cholesterol [7] of 114 mg/dL and a BUN [8] of 29 mg/dL. The ALT [9] was 84 IU/L, the AST [9] was 132 IU/L and the Albumin [9] was 4. The Bilirubin [9] was 0.12 mg/dL.
For “ISIS 416849: MOE gapmer, nucleobases 1275 to 1318 of SEQ ID NO: 1 (Table 8) (antisense GCACAGTTTCTGGCAGGCCT; MOE gapmer, wing and gap sizes not given here)”, the HCT [4] was 48%, the Lymphocyte [4] was 6967 cells/μL and the Neutrophil [4] was 1522 cells/μL. For the same substance, the Platelets [4] was 744 10^3/μL, the RBC [4] was 9 10^6/μL and the WBC [4] was 9 10^3/μL. It also gave a hemoglobin [4] of 14 g/dL, a monocytes [4] of 253 cells/μL and an ALT [7] of 1056 IU/L. It also gave an AST [7] of 582 IU/L, a Bilirubin [7] of 0.22 mg/dL and a Cholesterol [7] of 109 mg/dL. It also gave a BUN [8] of 23 mg/dL.
Work on “ISIS 416853: MOE gapmer, nucleobases 1275 to 1318 of SEQ ID NO: 1 (Table 8) (antisense TTGGTGCACAGTTTCTGGCA; MOE gapmer, wing and gap sizes not given here)” yielded an HCT [4] of 56%, a Lymphocyte [4] of 5184 cells/μL and a Neutrophil [4] of 2040 cells/μL. For the same substance, the Platelets [4] was 801 10^3/μL, the RBC [4] was 11 10^6/μL and the WBC [4] was 8 10^3/μL. The hemoglobin [4] was 17 g/dL, the monocytes [4] was 225 cells/μL and the ALT [7] was 1023 IU/L. For the same substance, the AST [7] was 1087 IU/L, the Bilirubin [7] was 0.25 mg/dL and the Cholesterol [7] was 164 mg/dL. It also gave a BUN [8] of 22 mg/dL.
Work on “ISIS 416854: MOE gapmer, nucleobases 1275 to 1318 of SEQ ID NO: 1 (Table 8) (antisense ATTGGTGCACAGTTTCTGGC; MOE gapmer, wing and gap sizes not given here)” yielded an HCT [4] of 43%, a Lymphocyte [4] of 9375 cells/μL and a Neutrophil [4] of 2082 cells/μL. For the same substance, the Platelets [4] was 1060 10^3/μL, the RBC [4] was 9 10^6/μL and the WBC [4] was 12 10^3/μL. The hemoglobin [4] was 13 g/dL, the monocytes [4] was 455 cells/μL and the ALT [7] was 1613 IU/L. For the same substance, the AST [7] was 1140 IU/L, the Bilirubin [7] was 0.21 mg/dL and the Cholesterol [7] was 199 mg/dL. For the same substance, the BUN [8] was 27 mg/dL.
“ISIS 416855: MOE gapmer, nucleobases 1275 to 1318 of SEQ ID NO: 1 (Table 8) (antisense CATTGGTGCACAGTTTCTGG; MOE gapmer, wing and gap sizes not given here)” gave an HCT [4] of 50%, a Lymphocyte [4] of 4236 cells/μL and a Neutrophil [4] of 1443 cells/μL. For the same substance, the Platelets [4] was 784 10^3/μL, the RBC [4] was 9 10^6/μL and the WBC [4] was 6 10^3/μL. The hemoglobin [4] was 14 g/dL, the monocytes [4] was 263 cells/μL and the ALT [7] was 786 IU/L. For the same substance, the AST [7] was 580 IU/L, the Bilirubin [7] was 0.25 mg/dL and the Cholesterol [7] was 162 mg/dL. It also gave a BUN [8] of 23 mg/dL.
For “ISIS 416857: MOE gapmer, nucleobases 1275 to 1318 of SEQ ID NO: 1 (Table 8) (antisense CGGCATTGGTGCACAGTTTC; MOE gapmer, wing and gap sizes not given here)”, the HCT [4] was 53%, the Lymphocyte [4] was 3697 cells/μL and the Neutrophil [4] was 1334 cells/μL. The Platelets [4] was 603 10^3/μL, the RBC [4] was 10 10^6/μL and the WBC [4] was 6 10^3/μL. For the same substance, the hemoglobin [4] was 15 g/dL, the monocytes [4] was 215 cells/μL and the ALT [7] was 370 IU/L. It also gave an AST [7] of 269 IU/L, a Bilirubin [7] of 0.22 mg/dL and a Cholesterol [7] of 94 mg/dL. The BUN [8] was 17 mg/dL.
Substance “ISIS 416862: MOE gapmer, nucleobases 1275 to 1318 of SEQ ID NO: 1 (Table 8) (antisense AGCGGACGGCATTGGTGCAC; MOE gapmer, wing and gap sizes not given here)” has an HCT [4] of 49%, a Lymphocyte [4] of 4445 cells/μL and a Neutrophil [4] of 1118 cells/μL. For the same substance, the Platelets [4] was 1007 10^3/μL, the RBC [4] was 9 10^6/μL and the WBC [4] was 6 10^3/μL. It also gave a hemoglobin [4] of 14 g/dL, a monocytes [4] of 174 cells/μL and an ALT [7] of 225 IU/L. The AST [7] was 172 IU/L, the Bilirubin [7] was 0.36 mg/dL and the Cholesterol [7] was 103 mg/dL. For the same substance, the BUN [8] was 21 mg/dL.
In the case of “ISIS 416865: MOE gapmer, nucleobases 1275 to 1318 of SEQ ID NO: 1 (Table 8) (antisense TGGCAGCGGACGGCATTGGT; MOE gapmer, wing and gap sizes not given here)”, the HCT [4] is reported as 50%, the Lymphocyte [4] is reported as 5148 cells/μL and the Neutrophil [4] is reported as 1227 cells/μL. The Platelets [4] was 872 10^3/μL, the RBC [4] was 9 10^6/μL and the WBC [4] was 7 10^3/μL. For the same substance, the hemoglobin [4] was 14 g/dL, the monocytes [4] was 315 cells/μL and the ALT [7] was 383 IU/L. It also gave an AST [7] of 262 IU/L, a Bilirubin [7] of 0.27 mg/dL and a Cholesterol [7] of 95 mg/dL. The BUN [8] was 20 mg/dL.
“ISIS 445513, (antisense GCAGCGGACGGCATTGGTGC; 6-8-6 MOE gapmer, further chemistry not given here)” showed an HCT [10] of 50%, an RBC [10] of 9.8 and a WBC [10] of 7. It also gave a hemoglobin [10] of 15.0 g/dL.
